Read-outs that look alike come from different tables or passages of the source.
What was measured:
[1] = test system: apomorphine-induced stereotypy; assay: Apomorphine-induced stereotypy in rats (APO); type: in vivo; conditions: Rattus norvegicus
Method: Apomorphine-Induced Stereotypy in Rats (APO)
Apomorphine (1.0 mg/kg, i.v.)-induced stereotypy (compulsive sniffing, licking, chewing) was scored every 5 min. over the first hour after injection of apomorphine, following a 1 hour interval pre-treatment with the test compound. The score system was: (3) pronounced, (2) moderate, (1) slight, and (O) absent.

[2] = molecular target: T1, Rat recombinant PDE10A (rPDE10A2) (Rattus norvegicus, UniProt Q9QYJ6); assay: In vitro assay PDE10A (SPA, 3H-cAMP); type: biochemical; conditions: pIC50 corresponds to the -log IC50 expressed in mol/L; for IC50: read-out: PDE10A2 pIC50 (converted)
T1 construct: made in house; host or cells: Sf9 insect cells, baculovirus
T1 sequence (Q9QYJ6 1-794): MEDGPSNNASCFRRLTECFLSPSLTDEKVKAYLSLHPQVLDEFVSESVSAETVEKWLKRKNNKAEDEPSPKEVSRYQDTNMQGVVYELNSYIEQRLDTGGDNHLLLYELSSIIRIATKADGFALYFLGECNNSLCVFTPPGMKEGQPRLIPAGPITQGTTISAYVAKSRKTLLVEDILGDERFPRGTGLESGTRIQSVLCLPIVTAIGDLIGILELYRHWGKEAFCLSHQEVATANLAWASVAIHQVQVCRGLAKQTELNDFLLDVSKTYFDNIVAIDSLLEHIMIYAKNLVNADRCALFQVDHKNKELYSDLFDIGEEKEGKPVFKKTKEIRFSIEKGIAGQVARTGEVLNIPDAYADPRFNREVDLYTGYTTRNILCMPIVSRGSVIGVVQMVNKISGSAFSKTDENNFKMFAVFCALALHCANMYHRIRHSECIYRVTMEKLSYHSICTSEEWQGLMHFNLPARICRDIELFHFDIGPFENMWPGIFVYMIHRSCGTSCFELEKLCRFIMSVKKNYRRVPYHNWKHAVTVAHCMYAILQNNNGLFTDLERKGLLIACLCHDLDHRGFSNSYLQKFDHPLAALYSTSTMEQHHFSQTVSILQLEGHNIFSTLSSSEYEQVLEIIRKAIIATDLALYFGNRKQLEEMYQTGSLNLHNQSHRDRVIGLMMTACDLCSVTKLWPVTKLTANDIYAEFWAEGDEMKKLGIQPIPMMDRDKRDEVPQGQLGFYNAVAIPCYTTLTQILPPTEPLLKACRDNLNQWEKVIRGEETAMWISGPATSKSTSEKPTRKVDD
Method: Rat recombinant PDE10A (rPDE10A2) was expressed in Sf9 cells using a recombinant rPDE10A baculovirus construct. Cells were harvested after 48 h of infection and the rPDE10A protein was purified by metal chelate chromatography on Ni-sepharose 6FF. Tested compounds were dissolved and diluted in 100% DMSO to a concentration 100 fold of the final concentration in the assay. Compound dilutions (0.4 μl) were added in 384 well plates to 20 μl of incubation buffer (50 mM Tris pH 7.8, 8.3 mM MgCl2, 1.7 mM EGTA). 10 μl of rPDE10A enzyme in incubation buffer was added and the reaction was started by addition of 10 μl substrate to a final concentration of 60 nM cAMP and 0.008 μCi ^3H-cAMP. The reaction was incubated for 60 min. at RT. […] After sedimentation of the beads during 30 min. the radioactivity was measured in a Perkin Elmer Topcount scintillation counter and results were expressed as cpm. For blank values the enzyme was omitted from the reaction and replaced by incubation buffer. Control values were obtained by addition of a final concentration of 1% DMSO instead of compound. The same assay principle is applied for the measurement of the affinity of the compound for other members of the PDE family with appropriate modifications in incubation buffer, substrate concentration, incubation time and stop solution.

PDE10 = molecular target: T2, PDE10 (Rattus norvegicus, UniProt Q9QYJ6); assay: PDE10 occupancy ([3H]-MP-10, striatum); type: in vivo; conditions: for receptor occupancy at 10 mg/kg / ED50: rat; for receptor occupancy at 10 mg/kg: 1 h, read-out: % occ. printed under Occ. ED50 >10; for ED50: occupancy, read-out: Occ. ED50
T2 construct: from tissue; host or cells: rat brain sections, striatum (ex vivo autoradiography after in vivo dosing)
T2 sequence (Q9QYJ6 1-794): T1 sequence (Q9QYJ6 1-794)
Method: Dose-response or single dose experiments were performed to measure PDE10 occupancy 1 hour after subcutaneous (s.c.) or oral (p.o.) administration. Male Wistar rats (200 g) were treated by s.c. or p.o. administration of various PDE10 inhibitors. The PDE10 radioligand [^3H]-MP-10 (10 μCi/animal) was injected intravenously (i.v.) 30 minutes before sacrifice. Brains were immediately removed from the skull and rapidly frozen. Twenty μm-thick brain sections were cut using a cryostat-microtome, thaw-mounted on microscope slides and loaded in a β-imager to quantify PDE10 occupancy in the striatum.

[3] = po, * compound was not soluble and was tested orally as a suspension, read-out: APO ED50
[4] = not active at 2.5 or at 10 mg/kg, not further tested, read-out: APO ED50 (not active at threshold dose)

Structure (SMILES)	IC50 [2] [nM]	ED50 ([1]; read-out: APO ED50) [mg/kg]	ED50 [1, 4] [mg/kg]	also measured
Cc1nc2c(-c3ccncc3)nccn2c1-c1cnn(CC(F)(F)F)c1 [compound 67]	85.1			ED50 [1, 3]: 3.1 mg/kg; % Occ. at 10 mg/kg (PDE10; administered s.c.): 55%
COCCc1ccc(-c2c(C(F)(F)F)nc3c(N4CCOCC4)nccn23)cn1 [compound 12, 3-[6-(2-Methoxy-ethyl)-pyridin-3-yl]-8-morpholin-4-yl-2-trifluoromethyl-imidazo[1,2-a]pyrazine]		≤ 2.5		receptor occupancy at 10 mg/kg (PDE10; sc): 22%; ED50 (PDE10; sc, administered s.c.): > 10 mg/kg
Cc1nc2c(N3CCOCC3)nccn2c1-c1cnc(CC(C)C)s1 [compound 42, 3-(2-Isobutyl-thiazol-5-yl)-2-methyl-8-morpholin-4-yl-imidazo[1,2-a]pyrazine]		5		% Occ. at 10 mg/kg (PDE10; administered s.c.): 59%
Cc1nc2c(N3CCOCC3)nccn2c1-c1ccnc(OC(C)C)c1 [compound 113]	251		> 2.5	% Occ. at 10 mg/kg (PDE10; administered s.c.): 11%
Cc1nc2c(N3CCOCC3)nccn2c1-c1ccc(C2CC2)nc1 [compound 28, 3-(6-Cyclopropyl-pyridin-3-yl)-2-methyl-8-morpholin-4-yl-imidazo[1,2-a]pyrazine]				ED50 [1, 3]: 1.2 mg/kg; receptor occupancy at 10 mg/kg (PDE10; sc): 31%; ED50 (PDE10; sc, administered s.c.): > 10 mg/kg
COC(C)(C)Cn1cc(-c2c(C3CC3)nc3c(-c4ccncc4)nccn23)cn1 [compound 50]	47.9	5		% Occ. at 10 mg/kg (PDE10; administered s.c.): 72%
COCCc1ccc(-c2c(OC)nc3c(N4CCOCC4)nccn23)cn1 [compound 15, 2-Methoxy-3-[6-(2-methoxy-ethyl)-pyridin-3-yl]-8-morpholin-4-yl-imidazo[1,2-a]pyrazine]		1.2		ED50 (PDE10; sc, administered s.c.): 1.5 mg/kg
COCCc1ccc(-c2c(C)nc3c(-c4ccncc4)nccn23)cn1 [compound 8, 3-[6-(2-Methoxy-ethyl)-pyridin-3-yl]-2-methyl-8-pyridin-4-yl-imidazo[1,2-a]pyrazine]		1.2		ED50 (PDE10; sc, administered s.c.): 2.6 mg/kg
COC(C)(C)CCc1ccc(-c2c(C)nc3c(N4CCOCC4)nccn23)cn1 [compound 29, 3-[6-(3-Methoxy-3-methyl-butyl)-pyridin-3-yl]-2-methyl-8-morpholin-4-yl-imidazo[1,2-a]pyrazine]	219	1.2		
COCCc1ncc(-c2c(C)nc3c(N4CCOCC4)nccn23)cc1F [compound 17, 3-[5-Fluoro-6-(2-methoxy-ethyl)-pyridin-3-yl]-2-methyl-8-morpholin-4-yl-imidazo[1,2-a]pyrazine]	275		> 2.5	
Cc1nc2c(N3CCOCC3)nccn2c1-c1ccnc(NC(C)C)c1 [compound 22, Isopropyl-[4-(2-methyl-8-morpholin-4-yl-imidazo[1,2-a]pyrazin-3-yl)-pyridin-2-yl]-amine]	97.7		> 2.5	
Cc1nc2c(N3CCOCC3)nccn2c1-c1ccnc(CC(C)C)c1 [compound 27, 3-(2-Isobutyl-pyridin-4-yl)-2-methyl-8-morpholin-4-yl-imidazo[1,2-a]pyrazine]	74.1		> 2.5	
Cc1nc2c(-c3ccncc3)nccn2c1-c1ccc(N2CCOCC2)nc1 [compound 115]	263	5		
COC[C@@H](C)n1cc(-c2c(C)nc3c(N4CCOCC4)nccn23)cn1 [compound 110]	214	3.1		
Cc1nc2c(N3CCOCC3)nccn2c1-c1cnn(C(C)C)c1 [compound 81]			> 2.5	PDE10A2 pIC50 [2]: 6.95
Cc1nc2c(N3CCOCC3)nccn2c1-c1cnn(CCF)c1 [compound 96]	141	5		

Structure (SMILES)	IC50 [2] [nM]	ED50 ([1]; read-out: APO ED50) [mg/kg]	ED50 [1, 4] [mg/kg]	also measured
CC(=O)CCn1cc(-c2c(C)nc3c(N4CCOCC4)nccn23)cn1 [compound 36, 4-[4-(2-Methyl-8-morpholin-4-yl-imidazo[1,2-a]pyrazin-3-yl)-pyrazol-1-yl]-butan-2-one]	138	3.1		
Cc1nc2c(N3CCOCC3)nccn2c1-c1cnn(Cc2ccccn2)c1 [compound 76]	102	3.1		
Cc1nc2c(N3CCOCC3)nccn2c1-c1ccc(OCC(F)(F)F)nc1 [compound 122]	380		> 2.5	
c1cn2c(-c3ccc(C4CCOCC4)nc3)c(C3CC3)nc2c(N2CCOCC2)n1 [compound 83]	115		> 2.5	
Cc1nc2c(N3CCOCC3)nccn2c1-c1cnn(Cc2ccc3ccccc3n2)c1 [compound 112]			> 2.5	PDE10A2 pIC50 [2]: 6.63
c1cn2c(-c3ccc(N4CCOCC4)nc3)c(C3CC3)nc2c(N2CCOCC2)n1 [compound 63]	83.2		> 2.5	
Cc1nc2c(N3CCOCC3)nccn2c1-c1cnn(CC2CCOCC2)c1 [compound 89]	135	≤ 10		
COCCn1cc(-c2cnc3c(N4CCOCC4)nccn23)cn1 [compound 141]	955	5		
Cc1nc2c(N3CCOCC3)nccn2c1-c1cnn(CC2CCCO2)c1 (single isomer, unassigned) [compound 71]	95.5	5		
Cc1nc2c(N3CCOCC3)nccn2c1-c1cnc(C(C)C)[nH]1 [compound 114]	263		> 2.5	
Cc1nc2c(N3CCOCC3)nccn2c1-c1cnn(CC2CCCO2)c1 (single isomer, unassigned) [compound 90]	135		> 2.5	
CO[C@@H](C)Cn1cc(-c2c(C)nc3c(-c4ccncc4)nccn23)cn1 [compound 101]	162	3.1		
COCCc1ccc(-c2cnc3c(N4CCOCC4)nccn23)cn1 [compound 136]	575		> 2.5	
CCC(COC)n1cc(-c2c(C)nc3c(N4CCOCC4)nccn23)cn1 (single isomer, unassigned) [compound 74]	95.5		> 2.5	
COCCn1cc(-c2c(C)nc3c(-c4cccnc4)nccn23)cn1 [compound 135]				PDE10A2 pIC50 [2]: 6.25; receptor occupancy at 10 mg/kg (PDE10; po): 29%; ED50 (PDE10; po, administered p.o. (a)): > 10 mg/kg

From US8859543B2, “Imidazo[1,2-a]pyrazine derivatives and their use for the prevention or treatment of neurological, psychiatric and metabolic disorders and diseases” (Janssen Pharmaceutica NV, priority 2010, dated 2014)
